Tests used:
[1] = test system: LPS-induced pulmonary neutrophilia in rats; experiment: In Vivo Assay 1: LPS-induced pulmonary neutrophilia in rats, orally administered PDE4 inhibitors; conditions: po, rat, LPS aerosol 30 min after dosing, BAL 4 hours post LPS, read-out: neutrophilia-inhibition ED50
Description: In Vivo Assay 1. LPS-induced Pulmonary Neutrophilia in Rats: Effect of Orally Administered PDE4 Inhibitors
The purpose of this neutrophilia model is to study the potentially anti-inflammatory effects in vivo of orally administered PDE4 inhibitors on neutrophilia induced by inhalation of aerosolized lipopolysaccharide (LPS), modelling the neutrophil inflammatory component(s) of COPD. See the literature section below for scientific background.
Male Lewis rats (Charles River, Raleigh, N.C., USA) weighing approximately 300-400 grams are pretreated with either (a) test compound suspended in 0.5% methylcellulose (obtainable from Sigma-Aldrich, St Louis, Mo., USA) in water or (b) vehicle only, delivered orally in a dose volume of 10 ml/kg. Generally, dose response curves are generated using the following doses of PDE4 inhibitors: 10.0, 2.0, 0.4, 0.08 and 0.016 mg/kg. Thirty minutes following pretreatment, the rats are exposed to aerosolized LPS (Serotype E. Coli 026:B6 prepared by trichloroacetic acid extraction, obtainable from Sigma-Aldrich, St Louis, Mo., USA), generated from a nebulizer containing a 100 μg/ml LPS solution. Rats are exposed to the LPS aerosol at a rate of 4 L/min for 20 minutes. LPS exposure is carried out in a closed chamber with internal dimensions of 45 cm length×24 cm width×20 cm height. The nebulizer and exposure chamber are contained in a certified fume hood. At 4 hours-post LPS exposure the rats are euthanized by overdose with pentobarbital at 90 mg/kg, administered intraperitoneally. Bronchoalveolar lavage (BAL) is performed through a 14 gauge blunt needle into the exposed trachea. Five, 5 ml washes are performed to collect a total of 25 ml of BAL fluid. Total cell counts and leukocyte differentials are performed on BAL fluid in order to calculate neutrophil influx into the lung. Percent neutrophil inhibition at each dose (cf. vehicle) is calculated and a variable slope, sigmoidal dose-response curve is generated, usually using Prism Graph-Pad. The dose-response curve is used to calculate an ED50 value (in mg per kg of body weight) for inhibition by the PDE4 inhibitor of the LPS-induced neutrophilia
Alternative method and results: In an alternative embodiment of the procedure, a single oral dose of 10 mg/kg or 1 mg/kg of the PDE4 inhibitor (or vehicle) is administered to the rats, and percent neutrophil inhibition is calculated and reported for that specific dose.

[2] = test system: pica feeding response of rats; experiment: In Vivo Assay 2: rat pica model of emesis; conditions: oral dosing, upper end given as greater than about 50 mg/kg
Description: In Vivo Assay 2. Rat Pica Model of Emesis
However, a side effect of some PDE4 inhibitors in many species is emesis. Because many rat models of inflammation are well characterized, they have been used in procedures (see e.g. In Vivo Assay 1 above) to show beneficial anti-inflammatory effects of PDE 4 inhibitors. However rats have no emetic response (they have no vomit reflex), so that the relationship between beneficial anti-inflammatory effects of PDE 4 inhibitors and emesis is difficult to study directly in rats.
Pica feeding is a behavioural response to illness in rats wherein rats eat non-nutritive substances such as earth or in particular clay (e.g. kaolin) which may help to absorb toxins. Pica feeding can be induced by motion and chemicals (especially chemicals which are emetic in humans), and can be inhibited pharmacologically with drugs that inhibit emesis in humans. The Rat Pica Model, In Vivo Assay 2, can determine the level of pica response of rats to PDE 4 inhibition at pharmacologically relevant doses in parallel to in vivo anti-inflammatory Assays in (a separate set of) rats (e.g. In Vivo Assay 1 above). Anti-inflammatory and pica assays in the same species together can provide data on the “therapeutic index” (TI) in the rat of the compounds/salts of the invention. The Rat TI can for example be calculated as the ratio of a) the potentially-emetic Pica Response ED50 dose from Assay 2 to b) the rat anti-inflammatory ED50 dose (e.g. measured by rat neutrophilia-inhibition in eg In Vivo Assay 1), with larger TI ratios possibly indicating lower emesis at many anti-inflammatory doses. This might allow a choice of a non-emetic or minimal-emetic pharmaceutical dose of the compounds or salts of the invention which has an anti-inflammatory effect. It is recognised however that achieving a low-emetic PDE4 inhibitory compound is not essential to the invention.
Procedure: On the first day of the experiment, the rats are housed individually in cages without bedding or “enrichment”. The rats are kept off of the cage floor by a wire screen. Pre-weighed food cups containing standard rat chow and clay pellets are placed in the cage. The clay pellets, obtainable from Languna Clay Co, City of Industry, Calif., USA, are the same size and shape as the food pellets. The rats are acclimated to the clay for 72 hours, during which time the cups and food and clay debris from the cage are weighed daily on an electronic balance capable of measuring to the nearest 0.1 grams. By the end of the 72 hour acclimation period the rats generally show no interest in the clay pellets.
At the end of 72 hours the rats are placed in clean cages and the food cups weighed. Rats that are still consuming clay regularly are removed from the study. […] The food and clay cups and cage debris are weighed the following day and the total clay and food consumed that night by each individual animal is calculated.
A dose response is calculated by first converting the data into quantal response, where animals are either positive or negative for the pica response. A rat is “pica positive” if it consumes greater than or equal to 0.3 grams of clay […] using logistic regression performed by the Statistica software statistical package. A Pica Response ED50 value in mg per kg of body weight can then be calculated. […]

SMILES	ED50 [1]	ED50 [2]
CCn1ncc2c(NC3CCOCC3)c(-c3nnc(C)o3)cnc21 [Example 14, 1-Ethyl-5-(5-methyl-1,3,4-oxadiazol-2-yl)-N-(tetrahydro-2H-pyran-4-yl)-1H-pyrazolo[3,4-b]pyridin-4-amine]	0.03 to 1 mg/kg	2 to 50 mg/kg
CCn1ncc2c(NC3CCOCC3)c(-c3nnc(C(C)(C)C)o3)cnc21 [Example 17, 5-(S-Tert-butyl-1,3,4-oxadiazol-2-yl)-1-ethyl-N-(tetrahydro-2H-pyran-4-yl)-1H-pyrazolo[3,4-b]pyridin-4-amine]	0.03 to 1 mg/kg	2 to 50 mg/kg
CCn1ncc2c(NC3CCOCC3)c(-c3nnc(CS(C)(=O)=O)o3)cnc21 [Example 23, 1-Ethyl-5-{5-[(methylsulfonyl)methyl]-1,3,4-oxadiazol-2-yl}-N-(tetrahydro-2H-pyran-4-yl)-1H-pyrazolo[3,4-b]pyridin-4-amine]	0.03 to 1 mg/kg	2 to 50 mg/kg
CCn1ncc2c(NC3CCOCC3)c(-c3nnc(CN4CCN(C)CC4)o3)cnc21 [Example 35, 1-Ethyl-5-{5-[(4-methylpiperazin-1-yl)methyl]-1,3,4-oxadiazol-2-yl}-N-(tetrahydro-2H-pyran-4-yl)-1H-pyrazolo[3,4-b]pyridin-4-amine]	0.03 to 1 mg/kg	2 to 50 mg/kg
CCn1ncc2c(NC3CCOCC3)c(-c3nnc(C4CCOCC4)o3)cnc21 [Example 38, 1-Ethyl-N-(tetrahydro-2H-pyran-4-yl)-5-[5-(tetrahydro-2H-pyran-4-yl)-1,3,4-oxadiazol-2-yl]-1H-pyrazolo[3,4-b]pyridin-4-amine]	0.03 to 1 mg/kg	2 to 50 mg/kg

Source: patent publication US7528148B2, “Pyrazolo[3,4-B]pyridine compounds, and their use as phosphodiesterase inhibitors” (Glaxo Group Limited, priority 2002, dated 2009)
